The results in this text go back to publication PMC3051820 (The Journal of Cell Biology, 2011).

The target of the assay is mitochondrial complex I (Mus musculus, UniProt P03888+Q91WD5+Q9DC70). As to the kind of experiment: polarography: oxygen consumption in cells with complex I-specific substrates. The class given is cell-based.
mitochondrial complex I, sequence (Q91VD9 24-727): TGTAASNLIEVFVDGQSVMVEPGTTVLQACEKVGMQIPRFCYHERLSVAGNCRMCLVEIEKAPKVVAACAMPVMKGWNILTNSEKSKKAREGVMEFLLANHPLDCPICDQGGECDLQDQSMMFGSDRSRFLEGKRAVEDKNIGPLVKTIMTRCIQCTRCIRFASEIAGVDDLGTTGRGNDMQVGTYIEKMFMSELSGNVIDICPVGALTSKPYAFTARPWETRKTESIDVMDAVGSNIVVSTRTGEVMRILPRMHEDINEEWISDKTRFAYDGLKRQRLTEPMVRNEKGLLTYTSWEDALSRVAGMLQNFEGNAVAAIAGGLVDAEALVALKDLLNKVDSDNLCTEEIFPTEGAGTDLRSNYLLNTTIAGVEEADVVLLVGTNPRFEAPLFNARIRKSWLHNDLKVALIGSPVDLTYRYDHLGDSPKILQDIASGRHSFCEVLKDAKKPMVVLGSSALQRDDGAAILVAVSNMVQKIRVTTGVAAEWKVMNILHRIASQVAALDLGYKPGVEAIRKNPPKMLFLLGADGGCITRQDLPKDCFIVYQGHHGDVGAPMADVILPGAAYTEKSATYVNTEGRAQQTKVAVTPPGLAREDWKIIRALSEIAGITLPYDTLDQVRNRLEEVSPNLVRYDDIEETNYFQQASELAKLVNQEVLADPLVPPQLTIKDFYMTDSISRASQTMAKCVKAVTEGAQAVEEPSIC
mitochondrial complex I, sequence (Q91WD5 34-463): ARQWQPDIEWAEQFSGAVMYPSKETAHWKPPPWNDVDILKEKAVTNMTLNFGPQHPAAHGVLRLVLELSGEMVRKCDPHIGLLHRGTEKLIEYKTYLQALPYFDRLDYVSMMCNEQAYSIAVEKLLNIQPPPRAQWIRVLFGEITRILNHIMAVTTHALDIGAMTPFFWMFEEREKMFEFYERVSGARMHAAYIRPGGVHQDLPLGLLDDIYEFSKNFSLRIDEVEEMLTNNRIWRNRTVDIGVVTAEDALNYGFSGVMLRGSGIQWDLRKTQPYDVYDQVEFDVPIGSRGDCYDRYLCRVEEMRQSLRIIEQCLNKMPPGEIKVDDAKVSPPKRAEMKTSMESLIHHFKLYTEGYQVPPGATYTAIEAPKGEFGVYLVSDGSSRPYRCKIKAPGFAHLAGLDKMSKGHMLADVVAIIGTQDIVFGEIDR
mitochondrial complex I, sequence (P03888 whole entry): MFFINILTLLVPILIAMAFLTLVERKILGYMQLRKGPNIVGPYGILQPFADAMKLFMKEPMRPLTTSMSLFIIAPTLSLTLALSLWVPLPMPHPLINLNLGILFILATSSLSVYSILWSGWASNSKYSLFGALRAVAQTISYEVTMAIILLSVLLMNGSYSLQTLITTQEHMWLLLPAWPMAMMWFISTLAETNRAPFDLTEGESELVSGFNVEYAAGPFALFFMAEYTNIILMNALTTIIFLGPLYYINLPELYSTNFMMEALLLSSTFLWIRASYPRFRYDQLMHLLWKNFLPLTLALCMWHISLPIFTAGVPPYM
mitochondrial complex I, sequence (Q9DC70 36-224): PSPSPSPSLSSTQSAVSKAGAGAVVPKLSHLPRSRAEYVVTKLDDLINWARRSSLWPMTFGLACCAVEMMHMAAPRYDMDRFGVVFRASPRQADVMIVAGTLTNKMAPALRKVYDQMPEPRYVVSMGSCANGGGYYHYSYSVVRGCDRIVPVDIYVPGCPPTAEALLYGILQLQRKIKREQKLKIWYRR
mitochondrial complex I, sequence (Q91YT0 21-464, further chain): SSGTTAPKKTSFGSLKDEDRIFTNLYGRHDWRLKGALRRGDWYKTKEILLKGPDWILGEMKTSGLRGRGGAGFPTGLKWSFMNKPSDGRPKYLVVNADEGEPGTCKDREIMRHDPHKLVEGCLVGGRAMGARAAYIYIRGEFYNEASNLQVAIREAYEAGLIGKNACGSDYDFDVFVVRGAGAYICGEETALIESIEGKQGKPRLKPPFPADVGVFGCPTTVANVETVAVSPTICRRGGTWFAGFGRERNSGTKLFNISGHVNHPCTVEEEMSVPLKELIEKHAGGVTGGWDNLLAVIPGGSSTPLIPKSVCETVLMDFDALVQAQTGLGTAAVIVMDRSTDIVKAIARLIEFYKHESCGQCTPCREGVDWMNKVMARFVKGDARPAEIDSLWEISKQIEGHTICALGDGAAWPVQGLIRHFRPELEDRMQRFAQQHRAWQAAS

With `C/C=C(\C)[C@H](O)[C@H](C)/C=C(C)/C=C/C/C(C)=C/Cc1nc(OC)c(OC)c(O)c1C` [piericidin A], the half-inhibitory concentration (IC50) was determined as 10 nM.

In the case of `C=C(C)[C@H]1Cc2c(ccc3c2O[C@@H]2COc4cc(OC)c(OC)cc4[C@@H]2C3=O)O1` [rotenone], the IC50 was found to be 20 nM.

The IC50 is the concentration at which inhibition is half-maximal.
